According to patent US20250353839A1, “POLYMORPH OF BENZO[C]CHROMAN COMPOUND, PREPARATION METHOD THEREFOR AND USE THEREOF” (Reistone Biopharma Company Limited, priority 2022, published 2025):

What was measured:
[1] = Dynamic vapor sorption (DVS) hygroscopicity, with XRPD before and after; type: physicochemical; conditions: for weight gain by hygroscopicity: DVS; for crystal form before and after DVS detection (XRPD): XRPD redetermined after DVS
Protocol: (§1) Test conditions for the instruments used in experiments of the present disclosure: • 1. X-ray Powder Diffraction, XRPD • Instrument type: Malver Panalytical Aeris X-ray powder diffractometer • Ray: monochromatic Cu-Kα ray (λ=1.54188) • Scanning mode: θ/2θ, Scanning range (2θ range): 3.5-50° • Voltage: 40 kV, Electric current: 15 mA • 2. Differential Scanning calorimetry, DSC • Instrument type: TA DSC250 • Purge gas: Nitrogen; Nitrogen purge rate: 50 mL/min • Heating rate: 10° C./min • Temperature range: 25° C.-300° C. • 3. Thermogravimetric Analysis, TGA • Instrument type: TA TGA550 • Purge gas: Nitrogen; Nitrogen purge rate: 20 ml/min • Heating rate: 10° C./min • Temperature range: 30° C.-350° C. 4. Dynamic vapor sorption (DVS) • Using SMS Intrinsic PLUS, the detection is performed at 25° C., with humidity change of 50%-0%-90% with a step size of 10%, in which the criteria for judging is that the mass change dM/dT for each gradient is less than 0.002%, TMAX is 360 min, and two cycles are performed. • 5. High performance liquid chromatography (HPLC) described in the stability test of the crystal forms of the present disclosure is determined on Agilent 1260 Infinity II.

[2] = Stability (influence factor) test of free base crystal form E, HPLC and XRPD; type: physicochemical; conditions: for related substances (impurities) by HPLC versus initial: different days
Protocol: as §1
In the content detection method by the high performance liquid chromatography described in the present disclosure, HPLC conditions are as follows: chromatographic column, Agilent Eclipse Plus C18 4.6 mm*150 mm, 3.5 μm; mobile phase, A-10 mmol/L solution of sodium dihydrogen phosphate (pH 8.0), and B-ACN; flow rate, 1.0 ml/min; wavelength, 210 nm.
In the related substances detection method by the high performance liquid chromatography described in Example 8 of the present disclosure, HPLC conditions are as follows: chromatographic column, Agilent Eclipse Plus C18 4.6 mm*150 mm, 3.5 μm; mobile phase, A-10 mmol/L solution of ammonium acetate, and B-ACN; flow rate, 1.0 ml/min; wavelength, 210 nm.
It is determined whether temperature and humidity have an influence on the stability of free base crystal form E of the compound of formula I.
The free base crystal form E was placed in a stabilizing chamber […] and subjected to influence factor tests using a series of temperature and humidity combinations. After being placed for different days under light and various temperature and humidity conditions, the samples were taken out. The related substances (impurities) were detected by high performance liquid chromatography.
The samples taken out on the last day under light and various temperature and humidity conditions were subjected to XRPD detection, showing that the free base crystal form E had no change and had good stability.

[3] = accelerated experimental conditions (80% RH)
[4] = normal storage conditions (25° C., 60% RH)

SMILES	weight gain by hygroscopicity [1, 3]	crystal form before and after DVS detection (XRPD) [1]	weight gain by hygroscopicity ([1]; extreme conditions (90% RH))	weight gain by hygroscopicity [1, 4]	other results
N#Cc1ccc2c(c1)COc1cc(C[C@@H](C#N)NC(=O)[C@@H]3CNCCCO3)c(F)cc1-2 [crystal form A]	approximately 5.39%	did not change			
N#Cc1ccc2c(c1)COc1cc(C[C@@H](C#N)NC(=O)[C@@H]3CNCCCO3)c(F)cc1-2 [crystal form B]	approximately 1.60%	did not change	approximately 3.87%	approximately 0.93%	
N#Cc1ccc2c(c1)COc1cc(C[C@@H](C#N)NC(=O)[C@@H]3CNCCCO3)c(F)cc1-2 [crystal form C]	approximately 0.89%	did not change	approximately 1.16%	approximately 0.65%	
N#Cc1ccc2c(c1)COc1cc(C[C@@H](C#N)NC(=O)[C@@H]3CNCCCO3)c(F)cc1-2 [crystal form D]	approximately 0.76%	did not change	approximately 0.84%	approximately 0.64%	
N#Cc1ccc2c(c1)COc1cc(C[C@@H](C#N)NC(=O)[C@@H]3CNCCCO3)c(F)cc1-2 [free base crystal form E]					Content (%) of the compound of formula I ([2]; 0 day): 97.45%; Content (%) of the compound of formula I ([2]; 0.5 ICH (light)): 96.07%; Content (%) of the compound of formula I ([2]; 1 ICH (light)): 94.52%; Content (%) of the compound of formula I ([2]; 25° C. RH 92%-1 week): 97.29%; Content (%) of the compound of formula I ([2]; 25° C. RH 92%-2 weeks): 97.5%; Content (%) of the compound of formula I ([2]; 40° C. RH 75%-1 week): 97.36%; Content (%) of the compound of formula I ([2]; 40° C. RH 75%-2 weeks): 97.51%; Content (%) of the compound of formula I ([2]; 60° C.-1 week): 97.25%; Content (%) of the compound of formula I ([2]; 60° C.-2 weeks): 97.55%; related substances (impurities) by HPLC versus initial ([2]; light conditions): impurities increased; crystal form after stability test (XRPD) ([2]; samples of the last day under light and various temperature and humidity conditions): had no change; related substances (impurities) by HPLC versus initial ([2]; various temperature and humidity conditions): no significant increase or only a slight increase
